Read-outs that look alike come from different tables or passages of the source.
Legend:
IKKa = biological target: T1, IKKa (Homo sapiens, UniProt O15111); assay: KiNativ cellular kinase profiling; assay type: cell-based; details: for Percent inhibition of kinase labeling by ATP-biotin: A375 cells, 1 μM, 3 hours, IKKa, labeling site Lys2; for inhibition at 1 µM: A-375, read-out: Percent inhibition of kinase labeling by ATP-biotin
T1 sequence (O15111 1-745): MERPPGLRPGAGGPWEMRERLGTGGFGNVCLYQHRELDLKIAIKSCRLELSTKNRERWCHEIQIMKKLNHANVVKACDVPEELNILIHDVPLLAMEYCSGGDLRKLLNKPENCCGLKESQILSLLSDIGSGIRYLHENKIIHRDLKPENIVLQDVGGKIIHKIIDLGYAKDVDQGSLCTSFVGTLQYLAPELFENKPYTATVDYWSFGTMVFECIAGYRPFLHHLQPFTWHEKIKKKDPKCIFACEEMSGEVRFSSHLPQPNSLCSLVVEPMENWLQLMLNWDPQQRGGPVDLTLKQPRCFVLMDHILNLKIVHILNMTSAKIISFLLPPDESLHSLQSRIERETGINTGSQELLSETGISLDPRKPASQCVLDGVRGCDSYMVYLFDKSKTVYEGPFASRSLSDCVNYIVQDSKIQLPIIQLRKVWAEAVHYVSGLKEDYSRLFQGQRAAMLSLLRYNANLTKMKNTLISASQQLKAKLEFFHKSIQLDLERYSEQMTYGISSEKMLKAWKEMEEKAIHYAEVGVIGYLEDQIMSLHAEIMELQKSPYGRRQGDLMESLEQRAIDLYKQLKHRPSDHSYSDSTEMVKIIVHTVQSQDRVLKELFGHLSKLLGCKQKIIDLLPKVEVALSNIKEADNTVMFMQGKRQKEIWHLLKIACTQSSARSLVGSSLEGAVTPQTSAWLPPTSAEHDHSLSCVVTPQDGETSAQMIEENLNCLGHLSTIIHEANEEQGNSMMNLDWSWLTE

GSK3B = GSK3B (Homo sapiens, UniProt P49841); assay: KiNativ cellular kinase profiling; assay type: cell-based; details: for Percent inhibition of kinase labeling by ATP-biotin: A375 cells, 1 μM, 3 hours, GSK3B, labeling site Lys2; for inhibition at 1 µM: A-375, read-out: Percent inhibition of kinase labeling by ATP-biotin
PHKg2 = biological target: T2, PHKg2 (Homo sapiens, UniProt P15735); assay: KiNativ cellular kinase profiling; assay type: cell-based; details: for Percent inhibition of kinase labeling by ATP-biotin: A375 cells, 1 μM, 3 hours, PHKg2, labeling site Lys1; for inhibition at 1 µM: A-375, read-out: Percent inhibition of kinase labeling by ATP-biotin
T2 sequence (P15735 1-406): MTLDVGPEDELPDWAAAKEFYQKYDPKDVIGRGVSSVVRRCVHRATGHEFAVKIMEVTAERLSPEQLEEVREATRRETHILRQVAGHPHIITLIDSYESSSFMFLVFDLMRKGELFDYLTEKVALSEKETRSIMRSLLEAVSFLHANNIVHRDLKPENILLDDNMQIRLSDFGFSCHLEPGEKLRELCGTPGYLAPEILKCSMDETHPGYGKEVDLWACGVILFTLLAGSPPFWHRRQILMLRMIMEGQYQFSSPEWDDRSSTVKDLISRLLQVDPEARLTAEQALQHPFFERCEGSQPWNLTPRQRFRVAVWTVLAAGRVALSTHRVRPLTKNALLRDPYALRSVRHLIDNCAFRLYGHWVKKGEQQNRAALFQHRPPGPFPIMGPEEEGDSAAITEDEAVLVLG

ROCK1,ROCK2 = assay: KiNativ cellular kinase profiling; assay type: cell-based; details: A375 cells, 1 μM, 3 hours; ROCK1,ROCK2, labeling site Lys2
PKD1,PKD2 = assay: KiNativ cellular kinase profiling; assay type: cell-based; details: A375 cells, 1 μM, 3 hours; PKD1,PKD2, labeling site Lys2
CDK9 = CDK9 (Homo sapiens, UniProt P50750); assay: KiNativ cellular kinase profiling; assay type: cell-based; details: for Percent inhibition of kinase labeling by ATP-biotin: A375 cells, 1 μM, 3 hours, CDK9, labeling site Lys2; for inhibition at 1 µM: A-375, read-out: Percent inhibition of kinase labeling by ATP-biotin
PFTAIRE1 = PFTAIRE1 (Homo sapiens, UniProt O94921); assay: KiNativ cellular kinase profiling; assay type: cell-based; details: for Percent inhibition of kinase labeling by ATP-biotin: A375 cells, 1 μM, 3 hours, PFTAIRE1, labeling site Lys1; for inhibition at 1 µM: A-375, read-out: Percent inhibition of kinase labeling by ATP-biotin
TAO2 = biological target: T3, TAO2 (Homo sapiens, UniProt Q9UL54); assay: KiNativ cellular kinase profiling; assay type: cell-based; details: for Percent inhibition of kinase labeling by ATP-biotin: A375 cells, 1 μM, 3 hours, TAO2, labeling site Lys2; for inhibition at 1 µM: A-375, read-out: Percent inhibition of kinase labeling by ATP-biotin
T3 sequence (Q9UL54 1-1235): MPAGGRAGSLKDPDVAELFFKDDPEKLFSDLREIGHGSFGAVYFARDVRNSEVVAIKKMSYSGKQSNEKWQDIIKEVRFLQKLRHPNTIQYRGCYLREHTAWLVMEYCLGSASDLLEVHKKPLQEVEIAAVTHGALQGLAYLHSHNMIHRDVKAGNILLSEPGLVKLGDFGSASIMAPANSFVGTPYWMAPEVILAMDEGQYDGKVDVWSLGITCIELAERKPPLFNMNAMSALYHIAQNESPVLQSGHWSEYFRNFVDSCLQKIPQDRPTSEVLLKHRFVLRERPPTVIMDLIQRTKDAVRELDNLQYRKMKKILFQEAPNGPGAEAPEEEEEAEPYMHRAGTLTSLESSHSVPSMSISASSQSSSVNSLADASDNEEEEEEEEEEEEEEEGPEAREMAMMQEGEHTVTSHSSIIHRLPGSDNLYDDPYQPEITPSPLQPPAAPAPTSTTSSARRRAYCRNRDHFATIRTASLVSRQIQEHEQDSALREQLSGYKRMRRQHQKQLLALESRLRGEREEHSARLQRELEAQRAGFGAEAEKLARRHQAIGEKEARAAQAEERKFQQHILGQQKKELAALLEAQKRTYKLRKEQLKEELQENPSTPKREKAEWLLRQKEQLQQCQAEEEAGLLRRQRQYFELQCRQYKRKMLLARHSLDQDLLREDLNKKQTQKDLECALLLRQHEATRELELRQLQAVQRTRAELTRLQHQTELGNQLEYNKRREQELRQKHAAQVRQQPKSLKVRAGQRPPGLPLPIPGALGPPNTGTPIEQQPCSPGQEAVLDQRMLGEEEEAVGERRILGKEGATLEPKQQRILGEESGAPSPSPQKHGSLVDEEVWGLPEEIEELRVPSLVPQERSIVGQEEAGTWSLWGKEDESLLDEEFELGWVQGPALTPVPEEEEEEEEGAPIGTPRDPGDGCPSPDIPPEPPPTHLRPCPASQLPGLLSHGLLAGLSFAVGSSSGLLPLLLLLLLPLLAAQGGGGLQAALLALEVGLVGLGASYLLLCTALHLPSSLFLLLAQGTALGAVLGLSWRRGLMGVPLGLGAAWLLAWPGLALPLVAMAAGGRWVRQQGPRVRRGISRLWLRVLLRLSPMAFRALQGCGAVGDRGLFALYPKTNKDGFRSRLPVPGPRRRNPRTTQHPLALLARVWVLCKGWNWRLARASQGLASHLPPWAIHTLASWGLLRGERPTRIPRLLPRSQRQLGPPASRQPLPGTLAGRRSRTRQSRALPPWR

AurA,AurB,AurC = assay: KiNativ cellular kinase profiling; assay type: cell-based; details: A375 cells, 1 μM, 3 hours, labeling site ATP Loop
[1] = system: c-Jun phosphorylation (phospho Ser73) in A375 cells; assay type: cell-based
KIT(V559D) = KIT(V559D) (Homo sapiens, UniProt P10721, V559D); assay: KinomeScan dissociation constant; assay type: binding
[2] = read-out: p-c-Jun EC50 (nM) A375, A375 cells, anisomycin stimulation, microscopy

Chain of CDK9 (P50750 whole entry): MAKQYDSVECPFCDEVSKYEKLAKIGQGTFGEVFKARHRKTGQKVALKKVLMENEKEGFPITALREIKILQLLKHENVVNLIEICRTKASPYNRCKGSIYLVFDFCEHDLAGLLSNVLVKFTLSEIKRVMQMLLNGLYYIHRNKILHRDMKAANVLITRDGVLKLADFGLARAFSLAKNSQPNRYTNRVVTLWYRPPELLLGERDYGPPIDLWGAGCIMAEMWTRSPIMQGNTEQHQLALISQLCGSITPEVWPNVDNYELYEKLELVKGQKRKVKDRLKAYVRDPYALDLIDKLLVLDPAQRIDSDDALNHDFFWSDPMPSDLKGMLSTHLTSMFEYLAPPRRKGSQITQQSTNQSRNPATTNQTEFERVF
Chain of CDK9 (O60563 whole entry partner): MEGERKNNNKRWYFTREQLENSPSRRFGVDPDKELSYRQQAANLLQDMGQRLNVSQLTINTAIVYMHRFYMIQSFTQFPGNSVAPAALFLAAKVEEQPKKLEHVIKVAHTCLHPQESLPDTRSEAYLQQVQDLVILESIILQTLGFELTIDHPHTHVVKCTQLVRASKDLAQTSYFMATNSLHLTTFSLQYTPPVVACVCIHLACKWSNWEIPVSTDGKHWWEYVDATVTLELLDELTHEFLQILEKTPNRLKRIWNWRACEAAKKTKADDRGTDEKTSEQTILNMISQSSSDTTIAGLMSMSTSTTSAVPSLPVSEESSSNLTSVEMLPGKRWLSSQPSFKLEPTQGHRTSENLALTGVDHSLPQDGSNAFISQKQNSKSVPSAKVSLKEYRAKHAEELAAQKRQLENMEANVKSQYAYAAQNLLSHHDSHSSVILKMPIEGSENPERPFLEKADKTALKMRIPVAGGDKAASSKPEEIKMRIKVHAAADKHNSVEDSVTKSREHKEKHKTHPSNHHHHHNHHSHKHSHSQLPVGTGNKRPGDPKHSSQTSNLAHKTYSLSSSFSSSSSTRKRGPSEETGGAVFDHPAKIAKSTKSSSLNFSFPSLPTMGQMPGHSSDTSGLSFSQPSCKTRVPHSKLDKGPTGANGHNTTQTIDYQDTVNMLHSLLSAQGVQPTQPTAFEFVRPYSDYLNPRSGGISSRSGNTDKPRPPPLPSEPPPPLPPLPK
Chain of KIT(V559D) (P10721 26-976 V559D): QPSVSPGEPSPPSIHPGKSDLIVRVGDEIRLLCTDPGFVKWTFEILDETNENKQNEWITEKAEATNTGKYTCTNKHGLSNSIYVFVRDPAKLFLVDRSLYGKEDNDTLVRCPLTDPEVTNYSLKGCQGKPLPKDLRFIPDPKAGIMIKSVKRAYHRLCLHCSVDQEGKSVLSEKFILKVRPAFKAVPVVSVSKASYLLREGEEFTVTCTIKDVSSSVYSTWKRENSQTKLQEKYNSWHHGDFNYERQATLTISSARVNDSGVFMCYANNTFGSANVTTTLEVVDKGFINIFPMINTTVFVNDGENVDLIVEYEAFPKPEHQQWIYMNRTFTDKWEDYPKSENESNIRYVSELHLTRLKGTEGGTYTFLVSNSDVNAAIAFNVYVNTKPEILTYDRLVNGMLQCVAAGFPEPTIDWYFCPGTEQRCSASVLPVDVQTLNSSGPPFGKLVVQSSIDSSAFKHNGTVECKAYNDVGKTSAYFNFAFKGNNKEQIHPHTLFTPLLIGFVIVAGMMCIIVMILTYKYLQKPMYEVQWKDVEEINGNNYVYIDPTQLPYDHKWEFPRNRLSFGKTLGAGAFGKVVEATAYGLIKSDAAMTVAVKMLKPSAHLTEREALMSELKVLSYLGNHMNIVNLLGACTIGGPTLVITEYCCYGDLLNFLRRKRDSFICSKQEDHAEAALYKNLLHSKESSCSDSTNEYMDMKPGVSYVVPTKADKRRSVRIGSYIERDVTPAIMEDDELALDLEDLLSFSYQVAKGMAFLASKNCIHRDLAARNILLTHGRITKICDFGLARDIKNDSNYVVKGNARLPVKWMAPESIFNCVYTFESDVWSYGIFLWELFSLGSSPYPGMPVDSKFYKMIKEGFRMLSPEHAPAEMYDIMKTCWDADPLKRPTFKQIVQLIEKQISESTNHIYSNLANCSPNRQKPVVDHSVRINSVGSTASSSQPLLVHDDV
Chain of PFTAIRE1 (O94921 whole entry): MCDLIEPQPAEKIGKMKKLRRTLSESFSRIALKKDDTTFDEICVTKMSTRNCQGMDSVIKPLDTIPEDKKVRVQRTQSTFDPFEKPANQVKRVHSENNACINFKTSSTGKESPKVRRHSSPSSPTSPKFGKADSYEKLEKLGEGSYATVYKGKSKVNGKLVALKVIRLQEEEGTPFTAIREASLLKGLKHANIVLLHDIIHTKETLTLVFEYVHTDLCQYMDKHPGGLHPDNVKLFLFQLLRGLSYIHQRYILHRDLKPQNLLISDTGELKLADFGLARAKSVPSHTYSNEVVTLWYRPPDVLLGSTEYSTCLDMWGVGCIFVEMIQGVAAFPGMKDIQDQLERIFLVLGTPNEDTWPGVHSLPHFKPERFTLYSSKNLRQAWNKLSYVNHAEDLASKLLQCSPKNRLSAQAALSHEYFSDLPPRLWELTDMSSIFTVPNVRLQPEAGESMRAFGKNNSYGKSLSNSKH
Chain of GSK3B (P49841 whole entry): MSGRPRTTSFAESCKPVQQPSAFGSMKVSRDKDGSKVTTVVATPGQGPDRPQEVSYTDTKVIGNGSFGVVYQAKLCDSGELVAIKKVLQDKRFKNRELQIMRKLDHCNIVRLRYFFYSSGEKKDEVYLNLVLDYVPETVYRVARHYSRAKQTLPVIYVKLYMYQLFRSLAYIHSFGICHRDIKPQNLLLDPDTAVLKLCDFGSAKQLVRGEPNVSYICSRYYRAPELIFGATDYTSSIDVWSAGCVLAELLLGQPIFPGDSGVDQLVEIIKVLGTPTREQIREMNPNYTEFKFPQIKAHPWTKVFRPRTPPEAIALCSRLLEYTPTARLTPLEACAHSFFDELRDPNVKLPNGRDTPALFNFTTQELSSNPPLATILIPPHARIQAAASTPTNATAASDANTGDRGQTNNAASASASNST

SMILES | Percent inhibition of kinase labeling by ATP-biotin (IKKa) [%] | Percent inhibition of kinase labeling by ATP-biotin (GSK3B) [%] | Percent inhibition of kinase labeling by ATP-biotin (PHKg2) [%] | Percent inhibition of kinase labeling by ATP-biotin (ROCK1,ROCK2) [%] | Percent inhibition of kinase labeling by ATP-biotin (PKD1,PKD2) [%] | Percent inhibition of kinase labeling by ATP-biotin (CDK9) [%] | Percent inhibition of kinase labeling by ATP-biotin (PFTAIRE1) [%] | Percent inhibition of kinase labeling by ATP-biotin (TAO2) [%] | Percent inhibition of kinase labeling by ATP-biotin (AurA,AurB,AurC) [%] | EC50 [1, 2] [nM] | inhibition at 1 µM (IKKa) [%] | inhibition at 1 µM (GSK3B) [%] | inhibition at 1 µM (PHKg2) [%] | Kd (KIT(V559D)) [nM] | inhibition at 1 µM (CDK9) [%] | inhibition at 1 µM (PFTAIRE1) [%] | inhibition at 1 µM (TAO2) [%] | EC50 ([1]; Homo sapiens, A-375, read-out: p-c-Jun EC50 (nM) A375) [nM]
CCC(=O)Nc1cccc(C(=O)Nc2ccc(Nc3nccc(-c4cccnc4)n3)cc2)c1 [JNK-IN-6] | 27.3 | 23.6 | 28 | 11.6 | 15.9 | 7.6 | −6 | 22.5 | 4.9 | 1900 |  |  |  |  |  |  |  | 
CN(C)C/C=C/C(=O)Nc1cccc(C(=O)Nc2ccc(Nc3nccc(-c4cccnc4)n3)cc2)c1 [JNK-IN-7] |  |  |  | −21.5 | 18.2 |  |  |  | 19.1 |  | -9.2 | 12.3 | -7 | 48 | 16.6 | 75.3 | -3.7 | 
Cc1cc(NC(=O)c2cccc(NC(=O)/C=C/CN(C)C)c2)ccc1Nc1nccc(-c2cccnc2)n1 [JNK-IN-8] |  |  |  | −17.1 | −3 |  |  |  | −11.3 |  | 4.9 | -8.5 | -0.8 | 92 | -34.1 | 38.1 | -21.6 | 338
CN(C)C/C=C/C(=O)Nc1cccc(C(=O)Nc2ccc(Nc3nccc(-c4c(-c5ccccc5)nn5ccccc45)n3)cc2)c1 [JNK-IN-11] |  |  |  | −33.9 | 10.4 |  |  |  | 53.8 |  | -7.3 | 67.1 | -76 | 8.2 | -23.4 | 12.8 | 42.6 | 
CN(C)C/C=C/C(=O)Nc1cccc(C(=O)Nc2ccc(Nc3nccc(/C(C#N)=C4\Nc5ccccc5S4)n3)cc2)c1 [JNK-IN-12] | −79.2 | −29.6 | −94.1 | −91 | −39.3 | −35.3 | 25.7 | −13 | −20.9 | 134 |  |  |  |  |  |  |  | 
